According to US20250197387A1, “BCL-XL DEGRADERS AND USES THEREOF” (Kymera Therapeutics, Inc., priority 2021, published 2025):
Read-outs that look alike come from different tables or passages of the source.

How the values were obtained:
Assay type in all cases: cell-based
[1] = tested on: Caki-2 cells; test: CTG (CellTiter-Glo) cell viability assay, Caki-2; details: Homo sapiens, 72 h, 3 day incubation, read-out: CTG Chempartner - Caki-2 3 day: Average external-IC50
Protocol: Compound-mediated viability effect on MOLT-4 and Caki-2 was quantitatively determined using the CellTiter-Glo® Luminescent Cell Viability Assay kit from Promega (Catalog number G7570) following manufacturer's recommended procedures. Briefly, MOLT-4 and Caki-2 cells were seeded into 384 well plates (Grenier Bio-One, Catalog number 781080) with a density of 10,000 cells per well. Compounds were then added to the assay plate with final top concentration of 10 μM and 1:3 dilution series with total of 9 doses. The final DMSO concentration is normalized to 0.2%. The assay plates were incubated at 37° C., for 3 days under 5% CO2. Then the assay plate was equilibrated at room temperature for 10 minutes. To determine cell viability, 30 uL CellTiter Glo reagent was added to each well and the assay plate was centrifuged at 1000 rpm for 30 second, incubated at room temperature for 10 min, and analyzed by detecting the luminescence using a multimode plate reader (EnVision 2105, PerkinElmer). The data was then analyzed by software Prism 7.0 from GraphPad and the dose response curves are fit using a three-parameter logistic equation to calculate IC50.
The letter codes for MOLT-4 IC50 include: A (<0.1 μM); B (0.1-1.0 μM); C (>1.0-3.0 μM); and D (>3.0 μM). The letter codes for Caki-2 IC50 include: A (<0.1 μM); B (0.1-1.0 μM); C (>1.0-10.0 μM); and D (>10.0 μM).

[2] = molecular target: T1, BCL-XL (Homo sapiens, UniProt Q07817); test: Bcl-xL ELISA degradation in MOLT-4 cells, 6 h; details: for DC50: read-out: Bcl-xL ELISA in MOLT-4 degradation 6 h: Mean external-Abs DC50
T1 construct: endogenous in cells; host or cells: MOLT-4
Protocol: The letter codes for BCL-XL DC50 include: A (<0.01 μM); B (0.01-0.1 μM); C (>[…]); D (>0.5-1.0 μM); and E (>1.0 μM). The letter codes for Dmax % include A (>75%); B (50 to 75%); C (<50%).

[3] = tested on: MOLT-4 cells; test: CTG (CellTiter-Glo) cell viability assay, MOLT-4; details: 3 day incubation, read-out: CTG Cell Viability Assay - MOLT-4 3 day: Average external-IC50
Method in brief: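 MOLT-4 and Caki-2 cells were seeded at 10,000 per well and treated with a 9-point, 1:3 dilution series from 10 μM top concentration (0.2% DMSO). After 3 days at 37 °C, 5% CO2, viability was read by CellTiter-Glo luminescence and IC50 fitted by three-parameter logistic.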

[4] = molecular target: T1, BCL-XL; test: BCL-XL degradation assay, western blot in MOLT-4 cells, 16 h; details: western blot, MOLT-4 cells, 16 h; for Dmax: read-out: Bcl-xL WB in MOLT-4 degradation 16 h: Average Dmax %; for DC50: read-out: Bcl-xL WB in MOLT-4 degradation 16 h: Mean external-Abs DC50
Method in brief: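 MOLT-4 cells treated with compounds at 0.02-10 μM final for 16 hr at 37° C; lysates analysed by western blot with anti-BCL-xL, beta-actin and GAPDH loading controls, infrared imaging and densitometry; DC50 and Dmax % reported as letter codes.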

T1 sequence (Q07817 whole entry): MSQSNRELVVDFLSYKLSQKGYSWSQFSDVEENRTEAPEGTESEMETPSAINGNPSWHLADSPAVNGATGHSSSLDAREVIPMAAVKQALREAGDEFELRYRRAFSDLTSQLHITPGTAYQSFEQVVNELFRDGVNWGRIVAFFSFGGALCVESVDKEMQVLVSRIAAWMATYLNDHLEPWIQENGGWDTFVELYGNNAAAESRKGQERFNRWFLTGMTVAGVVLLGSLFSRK

Row | Compound | IC50 [1] | Dmax [2] | DC50 [2] | IC50 ([3]; Homo sapiens, MOLT-4, 72 h) | Dmax [4] | DC50 [4] | IC50 [3] | Bcl-xL ELISA in MOLT-4 degradation 6 h: Average Dmax % [2] | Bcl-xL WB in MOLT-4 degradation 16 h: Average Dmax % [4]
1 | Cc1ncsc1-c1ccc([C@H](C)NC(=O)[C@@H]2C[C@@H](O)CN2C(=O)[C@@H](NC(=O)C2CCN(c3ccc(S(=O)(=O)NC(=O)c4nc(N5CCc6cccc(C(=O)Nc7nc8ccccc8s7)c6C5)ccc4-c4cccc5c4cnn5C(C)C)cc3)CC2)C(C)(C)C)cc1 [I-297] | 1000 to 10000 nM | < 50% | 500 to 1000 nM | – | – | – | – | – | –
2 | Cc1ncsc1-c1ccc([C@H](C)NC(=O)[C@@H]2C[C@@H](O)CN2C(=O)[C@@H](NC(=O)CCCCCCCCC(=O)N2CCN(CC#Cc3ccc(OCCCc4sc(N5CCc6cccc(C(=O)Nc7nc8ccccc8s7)c6C5)nc4C(=O)O)c(F)c3)CC2)C(C)(C)C)cc1 [I-204] | – | > 75% | 10 to 100 nM | 100 to 1000 nM | > 75% | < 10 nM | – | – | –
3 | Cc1ncsc1-c1ccc([C@H](C)NC(=O)[C@@H]2C[C@@H](O)CN2C(=O)[C@@H](NC(=O)CCCCCCN(C)C(=O)c2nc(N3CCc4cccc(C(=O)Nc5nc6ccccc6s5)c4C3)ccc2-c2cnn(CC3CCCCC3)c2C)C(C)(C)C)cc1 [I-185] | – | 50 to 75% | 10 to 100 nM | 100 to 1000 nM | > 75% | 10 to 100 nM | – | – | –
4 | Cc1ncsc1-c1ccc(CNC(=O)[C@@H]2C[C@@H](O)CN2C(=O)[C@H](c2cc(N3CC4(CN(C(=O)CCCCC(=O)N(C)CC#Cc5ccc(OCCCc6ccc(N7CCc8cccc(C(=O)Nc9nc%10ccccc%10s9)c8C7)nc6C(=O)O)c(F)c5)C4)C3)no2)C(C)C)cc1 [I-192] | – | < 50% | > 1000 nM | 1000 to 3000 nM | 50 to 75% | < 10 nM | – | – | –
5 | Cc1ncsc1-c1ccc(CNC(=O)[C@@H]2C[C@@H](O)CN2C(=O)[C@@H](NC(=O)C2(F)CC2)C(C)(C)C)c(OCC(=O)N2CCN(CC[C@H](CSc3ccccc3)Nc3ccc(S(=O)(=O)NC(=O)c4ccc(N5CCN(CC6=C(c7ccc(Cl)cc7)CCC(C)(C)C6)CC5)cc4)cc3S(=O)(=O)C(F)(F)F)CC2)c1 [I-387] | > 10000 nM | – | – | – | > 75% | 10 to 100 nM | – | – | –
6 | Cc1ncsc1-c1ccc(CNC(=O)[C@@H]2C[C@@H](O)CN2C(=O)[C@H](c2cc(OCCCCCCCCC(=O)N(C)CC#Cc3ccc(OCCCc4ccc(N5CCc6cccc(C(=O)Nc7nc8ccccc8s7)c6C5)nc4C(=O)O)c(F)c3)no2)C(C)C)cc1 [I-172] | – | 50 to 75% | 10 to 100 nM | 100 to 1000 nM | > 75% | < 10 nM | – | – | –
7 | Cc1ncsc1-c1ccc([C@H](C)NC(=O)[C@@H]2C[C@@H](O)CN2C(=O)[C@@H](NC(=O)N2CC(c3ccc(S(=O)(=O)NC(=O)c4nc(N5CCc6cccc(C(=O)Nc7nc8ccccc8s7)c6C5)ccc4-c4cnn(CC5CCCCC5)c4C)cc3)C2)C(C)(C)C)cc1 [I-210] | – | 50 to 75% | 100 to 500 nM | 100 to 1000 nM | > 75% | 100 to 500 nM | – | – | –
8 | Cc1ncsc1-c1ccc([C@H](C)NC(=O)[C@@H]2C[C@@H](O)CN2C(=O)[C@@H](NC(=O)CCCCCCCC(=O)N(C)CC#Cc2cccc(F)c2OCCCc2sc(N3CCc4cccc(C(=O)Nc5nc6ccccc6s5)c4C3)nc2C(=O)O)C(C)(C)C)cc1 [I-17] | > 10000 nM | – | – | – | > 75% | 10 to 100 nM | – | – | –
9 | Cc1ncsc1-c1ccc([C@H](C)NC(=O)[C@@H]2C[C@@H](O)CN2C(=O)[C@@H](NC(=O)CCCC(=O)N(C)CC#Cc2cccc(F)c2OCCCc2sc(N3CCc4cccc(C(=O)Nc5nc6ccccc6s5)c4C3)nc2C(=O)O)C(C)(C)C)cc1 [I-15] | > 10000 nM | – | – | – | 50 to 75% | 500 to 1000 nM | – | – | –
10 | Cc1ncsc1-c1ccc(CNC(=O)[C@@H]2C[C@@H](O)CN2C(=O)[C@H](c2cc(N3CC4(CN(CCCC(=O)N(C)CC#Cc5ccc(OCCCc6ccc(N7CCc8cccc(C(=O)Nc9nc%10ccccc%10s9)c8C7)nc6C(=O)O)c(F)c5)C4)C3)no2)C(C)C)cc1 [I-181] | – | 50 to 75% | 10 to 100 nM | 100 to 1000 nM | > 75% | < 10 nM | – | – | –
11 | Cc1ncsc1-c1ccc([C@H](C)NC(=O)[C@@H]2C[C@@H](O)CN2C(=O)[C@@H](NC(=O)CCCCCCC(=O)N2CCN(C[C@@]3(C)CCC(c4ccc(Cl)cc4)=C(CN4CCN(c5ccc(C(=O)NS(=O)(=O)c6ccc(N[C@H](CCN7CCOCC7)CSc7ccccc7)c(S(=O)(=O)C(F)(F)F)c6)cc5)CC4)C3)CC2)C(C)(C)C)cc1 [I-396] | – | 50 to 75% | 500 to 1000 nM | 100 to 1000 nM | > 75% | < 10 nM | – | – | –
12 | Cc1ncsc1-c1ccc([C@H](C)NC(=O)[C@@H]2C[C@@H](O)CN2C(=O)[C@@H](NC(=O)CCCCCC(=O)NCCOc2ccc(C(=O)Nc3nc4ccccc4s3)c3c2CCN(c2ccc(-c4cnn(CC5CCCCC5)c4C)c(C(=O)O)n2)C3)C(C)(C)C)cc1 [I-44] | > 10000 nM | – | – | – | > 75% | 100 to 500 nM | – | – | –
13 | Cc1ncsc1-c1ccc([C@H](C)NC(=O)[C@@H]2C[C@@H](O)CN2C(=O)[C@@H](NC(=O)CCC2CCC(S(=O)(=O)NC(=O)c3nc(N4CCc5cccc(C(=O)Nc6nc7ccccc7s6)c5C4)ccc3-c3cnn(CC4CCCCC4)c3C)CC2)C(C)(C)C)cc1 (stereo partly drawn) [I-209] | – | 50 to 75% | 100 to 500 nM | < 100 nM | > 75% | 10 to 100 nM | – | – | –
14 | Cc1ncsc1-c1ccc([C@H](C)NC(=O)[C@@H]2C[C@@H](O)CN2C(=O)[C@@H](NC(=O)N2CC(N3CCC(S(=O)(=O)NC(=O)c4nc(N5CCc6cccc(C(=O)Nc7nc8ccccc8s7)c6C5)ccc4-c4cnn(CC5CCCCC5)c4C)CC3)C2)C(C)(C)C)cc1 [I-212] | – | 50 to 75% | 100 to 500 nM | 100 to 1000 nM | > 75% | < 10 nM | – | – | –
15 | Cc1ncsc1-c1ccc([C@H](C)NC(=O)[C@@H]2C[C@@H](O)CN2C(=O)[C@@H](NC(=O)COCCN2CCC(S(=O)(=O)NC(=O)c3nc(N4CCc5cccc(C(=O)Nc6nc7ccccc7s6)c5C4)ccc3-c3cnn(CC4CCCCC4)c3C)CC2)C(C)(C)C)cc1 [I-206] | – | 50 to 75% | 10 to 100 nM | 100 to 1000 nM | > 75% | < 10 nM | – | – | –
16 | Cc1cc([C@H](C(=O)N2C[C@H](O)C[C@H]2C(=O)NCc2ccc(-c3scnc3C)cc2OCCCCCCNC(=O)c2nc(N3CCc4cccc(C(=O)Nc5nc6ccccc6s5)c4C3)ccc2-c2cnn(CC3CCCCC3)c2C)C(C)C)on1 [I-197] | – | < 50% | > 1000 nM | 100 to 1000 nM | > 75% | 10 to 100 nM | – | – | –
17 | Cc1ncsc1-c1ccc(CNC(=O)[C@@H]2C[C@@H](O)CN2C(=O)[C@@H](NC(=O)C2(F)CC2)C(C)(C)C)c(OCCN2CCC(CS(=O)(=O)NC(=O)c3nc(N4CCc5cccc(C(=O)Nc6nc7ccccc7s6)c5C4)ccc3-c3cnn(CC4CCCCC4)c3C)CC2)c1 [I-189] | – | 50 to 75% | 10 to 100 nM | 100 to 1000 nM | > 75% | 10 to 100 nM | – | – | –
18 | Cc1ncsc1-c1ccc([C@H](C)NC(=O)[C@@H]2C[C@@H](O)CN2C(=O)[C@@H](NC(=O)CCCCCCC(=O)N2CCN(CC3(C)CCC(c4ccc(Cl)cc4)=C(CN4CCN(c5ccc(C(=O)NS(=O)(=O)c6ccc(N[C@H](CCN7CCOCC7)CSc7ccccc7)c(S(=O)(=O)C(F)(F)F)c6)cc5)CC4)C3)CC2)C(C)(C)C)cc1 (stereo partly drawn) [I-399] | – | – | 100 to 500 nM | – | – | < 10 nM | 100 to 1000 nM | C (C (<50%)) | A (A (>75%))
19 | Cc1ncsc1-c1ccc(CNC(=O)[C@@H]2C[C@@H](O)CN2C(=O)[C@@H](NC(=O)C2(F)CC2)C(C)(C)C)c(OCCC2CN(CC[C@H](CSc3ccccc3)Nc3ccc(S(=O)(=O)NC(=O)c4ccc(N5CCN(CC6=C(c7ccc(Cl)cc7)CCC(C)(C)C6)CC5)cc4)cc3S(=O)(=O)C(F)(F)F)C2)c1 [I-208] | – | < 50% | > 1000 nM | 100 to 1000 nM | 50 to 75% | 500 to 1000 nM | – | – | –
20 | Cc1ncsc1-c1ccc(CNC(=O)[C@@H]2C[C@@H](O)CN2C(=O)[C@@H](NC(=O)C2(F)CC2)C(C)(C)C)c(OCCN2CC3(C2)CN(C(=O)c2nc(N4CCc5cccc(C(=O)Nc6nc7ccccc7s6)c5C4)ccc2-c2cnn(CC4CCCCC4)c2C)C3)c1 [I-207] | – | < 50% | > 1000 nM | 100 to 1000 nM | 50 to 75% | 100 to 500 nM | – | – | –
